This note sets out measurements from patent publication US20240287172A1, “PROTEIN BINDERS TO IRHOM2 EPITOPES” (SCIRHOM GMBH, priority 2019, published 2024).

SMILES strings stand for the structures.

A word on the inhibition: it is the change of the read-out against control, counted positive when it falls. Low values mean little suppression, high ones strong suppression.

The assay has as its system LPS-induced release of endogenous TNFα from human THP-1 monocytic cells. In words: ELISA-based TNFα release assay, LPS-induced, THP-1 cells. Type of assay: cell-based. As to conditions: LPS 50 ng/ml, 2 hours, antibodies purified from hybridoma supernatants and IgG at 10 μg/ml, Batimastat at 10 μM. Here is the method:
In the following study, ELISA-based TNFα release assays were performed to verify the inhibitory effects of the purified antibodies of the invention on LPS-induced release of endogenous TNFα from human THP-1 monocytic cells.
In brief, on day 1, Nunc black MaxiSorp® 96-well plates (Thermo Fisher Scientific, USA) were coated overnight with 100 μl per well of mouse anti-human TNFα capture antibody (provided as part of the DuoSet ELISA kit) at 4 μg/ml TBS at 4° C. On day 2, the capture antibody solution was removed and MaxiSorp® plates were blocked with 300 μl per well of TBS, 1% BSA at room temperature for 3 hours. […]
Following another round of 4 times washing with 350 μl TBS-T (Carl Roth, Germany) per well on a 96-head plate washer (Tecan Group, Switzerland) and careful removal of all buffer traces after the fourth cycle, 100 μl AttoPhos substrate solution (Promega, USA) per well was added for incubation in the dark at room temperature for 1 hour. Using an infinite M1000 (Tecan Group, Switzerland) microplate reader, the fluorescence of each well was collected at an excitation wavelength of 435 nm and an emission wavelength of 555 nm. […]

`CNC(=O)[C@H](Cc1ccccc1)NC(=O)[C@H](CC(C)C)[C@H](CSc1cccs1)C(=O)NO` [Batimastat] registered an inhibition at 10 µM of 96.2%.
